What is called viability is a read-out of living cells in per cent, often relative to untreated cells. A word on the half-life: it is the time in which the quantity being followed falls by half. High values mean slow decline, low ones rapid decline.

Series [1] has as its system 125I-labeled CC49 conjugate. The series can be described thus: Triggered radiolabel release from 125I-labeled CC49-3.6 conjugate, SEC. To be noted: 2h in PBS at 37° C. Here is the method: The anti-TAG72 mAb CC49 was conjugated with 3.6 in borate buffer pH 8.0 (containing 1 mM DTPA) using 3 equiv. TCEP. After conjugation, the product was dialyzed extensively (20 kDa MW cut-off membrane) in PBS. The CC49-3.6 the conjugate was radiolabeled using a previously described ^125I-labeled tetrazine [Albu et al., Bioconjug Chem 2016, 27, 207-216] in PBS at 37° C. for 1 h. Due to the higher reactivity of the TCO tag on the outside vs the cleavable TCO trigger on the inside the radiolabeling occurred selectively via the TCO tag. The crude labeling mixture was purified using a desalting cartridge (Zeba spin column, 40 kDa MW cut-off) then the isolated ^125I-labeled CC49 conjugate was incubated with activator 2.7 for 2h in PBS at 37° C., resulting in reaction with the TCO trigger, yielding 88.6% radiolabel release, as confirmed by SEC analysis.

Series [2] is described as follows: Second-order rate constant of the IEDDA reaction with TCO 3.2, stopped-flow UV-Vis, pseudo first-order conditions. To be noted: 25% MeCN/PBS at 20° C.; mean ± SD (n = 5). Type of series: physicochemical. As for the experimental part: (§1) The second-order rate constant of the IEDDA reaction between model TCO 3.2 and activators 2.7 or 2.8 in MeCN at 20° C. was determined (n=1) by UV-Vis spectrometry under second-order conditions. A cuvette was filled with a solution of activator (3 mL 0.083 mM in MeCN), and equilibrated at 20° C. Next, a solution of TCO 3.2 (10.0 μL, 25 mM in DMSO) was added. The absorption at 540 nm was measured every second in a time course experiment. From the decay of this absorption, the conversion x was calculated. The second-order rate constant k2 was determined from the slope of the curve of a plot of 1/c-1/c0 versus time. The second-order rate constant of the IEDDA reaction between model TCO 3.2 and activators 2.7, 2.8, 2.14, 2.16, or 2.17 in 25% MeCN/PBS at 20° C. was determined (n=5) by stopped-flow UV-Vis spectrometry under pseudo first-order conditions. Tetrazine solutions (0.25 mM in 25% MeCN/PBS) and TCO 3.2 (3.45 mM in 25% MeCN/PBS) were mixed in a volume ratio of 1:1, resulting in a concentration of 0.125 mM and 1.73 mM, respectively. The absorption at 520 nm was measured every 50 ms, and from the decay of this absorption, the pseudo first-order rate constant k1′ was determined by a nonlinear Simplex regression analysis of the data points using BioKine software. The second-order rate constant k2 was calculated: k2=k1′/c,TCO. As expected for a cycloaddition reaction, the reactivity in PBS is much higher than in MeCN, and importantly the tetrazines of the invention are at least 1 order of magnitude more reactive than the known and high-releasing 3,6-bismethyl-tetrazine (2.17), while giving similar release yields (see Example 7).

The nature of series [3]: Cell proliferation assay (MTT). Type of series: cell-based. The settings on record: human, 3 days incubation, mean ± SEM (n = 6), read-out: LS174T cell viability (%); for viability at 72 h, 0.01 μM: 0.01 μM activator; for viability at 72 h, 0.1 μM: 0.1 μM activator; for viability at 72 h, 1 μM: 1 μM activator. Here is the method: The human colon carcinoma LS174T cell line was obtained from the American Type Culture Collection and cultured in RPMI-1640 medium supplemented with 2 mM glutamine and 10% heat inactivated fetal calf serum. Twenty-four hours prior to the experiment, the cells were plated in 96-well plates at a 5000 cells/well density. The cells were then incubated with serial dilutions (10 nM-1 μM; n=6) of activators 2.7, 2.8, 2.14, 2.16, 2.17, 2.18 and 2.19 in culture medium for 72h at 37° C. The % cell proliferation was assessed by an MTT assay, in comparison to cells incubated in culture medium without activator. No toxicity was observed when the LS174T cells were incubated with the tested activators (and possible metabolites formed in the presence of serum) for 3-days at a 0.01-1 μM activator concentration.

The nature of series [4]: Triggered release of Construct-A from TCO trigger, HPLC-MS/PDA. As for the experimental part: At the specified time point, the sample was analyzed by HPLC-MS/PDA, and the release yield was determined from the observed amounts of IEDDA adducts, elimination product, and/or released Construct. In case the release was not complete, the sample was incubated at 37° C. for additional time and analyzed once again.

Series [5] is described as follows: Activator stability in PBS at rt (UV decay at 520 nm). It is filed as physicochemical. The settings on record: mean ± SD (n = 3). Here is the method:
The assessment of activator stability was performed in PBS at rt. Solutions in DMSO (2.5 mM, 20 μL) were diluted with PBS (3.00 mL), filtered, and incubated at rt. The decrease of the absorption band at 520 nm was monitored using UV spectroscopy.

Series [6] relates to ADC AVP0458-TCO-MMAE. The series can be described thus: Triggered drug (MMAE) release from ADC in 50% mouse plasma, HPLC-SIM-MS. To be noted: for MMAE release from ADC AVP0458-TCO-MMAE, Release (%) / MMAE release level, in words: 50% mouse plasma, 37° C.; for MMAE release level, in words: after 24h incubation. Here is the method:
In a 1.5 mL vial, the following was combined: 650 μL mouse plasma, 600 μL PBS, 20 μL ADC (1.62 μg/μL in PBS) and 7.5 μL d8-MMAE solution (0.167 μg/μL, internal standard). Next, aliquots of 20 μL were prepared to which 5.2 μL of a tetrazine solution (0.25 mM in 1:1 DMSO/H2O) was added and the solution was incubated at 37° C. At various times, 100 μL of cold MeCN was added to the aliquot and the mixture was vortexed, stored at 4° C. for 30 min. and centrifuged. 20 μL of supernatant was taken and combined with 100 μL of 1% formic acid (aq) solution. This sample was analysed with HPLC-SIM-MS to quantify the ratio of free MMAE and d8-MMAE, which is a measure of the release yield.

A short description of series [7]: Second-order rate constant of the IEDDA reaction with TCO 3.2, UV-Vis under second-order conditions in MeCN. The settings on record: MeCN at 20° C.; n = 1. Type of series: physicochemical. Here is the method: as §1, with “As expected for a cycloaddition reaction, the reactivity in PBS is much higher than in MeCN, and importantly the tetrazines of the invention are at least 1 order of magnitude more reactive than the known and high-releasing 3,6-bismethyl-tetrazine (2.17), while giving similar release yields (see Example 7).” left out

Series [8] relates to TCO Trigger on tumor-bound ADC. Briefly: In vivo reactivity between ADC AVP0458-TCO-MMAE and tetrazine activators (tumor activation study). The settings on record: higher dose (dose 5×: ca. 16.7 μmol/kg). Details: species or system mice. Here is the method:
(§2) Female nude Balb/C mice were subcutaneously inoculated ca. 1×10^6 LS174T cells in the hind limb. Biodistribution studies started when the tumors reached 0.1-0.2 cm^3 size. Experiments were carried out to evaluate the reactivity between the TCO Trigger on tumor-bound ADC and activators 2.7, 2.8, 2.14 and 2.16 in LS174T xenografts, as previously performed for other activators [Rossin et al Nature Communications 2018, 9, 1484]. The activators were administered at a 20- to 100-lower dose than that used in previous activation and therapy studies (ca. 0.335 mmol/kg). […] Groups of tumor bearing mice (n=4) were injected with ^125I-labeled ADC (2 mg/kg) followed 48 h later by the activators (dose 1×: ca. 3.3 μmol/kg; dose 5×: ca. 16.7 μmol/kg) and, after 1 h, by [^111In]In-2.20 (ca. 0.33 μmol/kg). One group was injected with the same amount of ^125I-labeled ADC followed only by ^111In-2.20 49 h later. One group was injected only with ^111In-2.20 (non-specific probe binding). All mice were euthanized 23 h post-probe injection and the ^125I and ^111In uptakes in tumors were measured by γ-counting.

Series [9] has as its system LS174T xenografts. The series can be described thus: MMAE measurement in tumors. Type of series: in vivo, mice. The settings on record: 24 h after administration of activator at dose 1×. As for the experimental part: as §2
The concentration of MMAE released in tumors was measured as previously reported [Rossin et al Nature Communications 2018, 9, 1484]. […] For this reason, activator 2.16 was selected for a therapy study in combination with the click-cleavable ADC. At the doses of tc-ADC (4 mg/kg) and 2.16 (dose 10×; 33.5 μmol/kg) used for therapy study, a high level of 339±45 nM free MMAE was detected in tumors.

[10] abbreviates: 2 min after reaction with activator.

`Oc1cccnc1-c1nnc(-c2ncccc2O)nn1` [2.7, 2,2′-(1,2,4,5-Tetrazine-3,6-diyl)bis(pyridin-3-ol)] showed a radiolabel release in series [1] of 88.6%. Also, the “Calculated k2 values for the reaction between tetrazine activators and TCO 3.2 in PBS” value in series [2] is 397 ± 4 M⁻¹ s⁻¹. The viability at 72 h, 0.01 μM in series [3] was 93.6 ± 4.1%. The viability at 72 h, 0.1 μM in series [3] is 91.5 ± 4.4%. Further, in series [3], the viability at 72 h, 1 μM was 98.2 ± 4.6%. In addition, the Construct release % in series [4] (TCO 3.10, doxorubicin, 18 h, 37° C.) is recorded as 18 h: 100%; in series [4] (TCO 3.10, released construct doxorubicin, 5 min) it was 5 min: 52%; in [4] (TCO 3.11, released construct doxorubicin, 5 min), 5 min: 100%; in series [4] (TCO 3.2, dimethylamine, 2 h, incubated at 37° C.) it was 2 h: 80%; in series [4] (TCO 3.2, dimethylamine, 20 h, incubated at 37° C.), 20 h: 95%; in [4] (TCO 3.2, released construct dimethylamine, 5 min, MeCN/PBS) it was 5 min: 50%. The Construct release % in [4] (TCO 3.23, released construct dimethylamine, 5 min) was 5 min: 100%; in [4] (TCO 3.32, released construct dimethylamine, 5 min) it was 5 min: 100%; in series [4] (TCO 3.7, 3-phenylpropan-1-ol, 24 h, 37° C.) it was 24 h: 88%; in series [4] (TCO 3.7, 3-phenylpropan-1-ol, 48 h, 37° C.) it was 48 h: 95%; in [4] (TCO 3.7, released construct 3-phenylpropan-1-ol, 5 min) it was 5 min: 74%; in series [4] (TCO 3.8, benzoic acid, 24 h, 37° C.), 24 h: 90%. Besides, the Construct release % in [4] (TCO 3.8, released construct benzoic acid, 5 min) is 5 min: 45%; in [4] (TCO 3.9, phenol, 24 h, 37° C.), 24 h: 93%; in [4] (TCO 3.9, released construct phenol, 5 min), 5 min: 50%. Further, the half-life at 16.6 µM in series [5] was 37.8 ± 0.8 h. The “MMAE release from ADC AVP0458-TCO-MMAE, Release (%)” value in [6] (setting [10]) was determined as 53.8%; in series [6] (10 min) it was 80.1%; in series [6] (1 h) it was 80.9%; in [6] (5 h), 83.8%; in [6] (24 h, mean ± SD (n = 3)), 98.4 ± 0.3%. Further, the “MMAE release level, in words” value in [6] is reported as “as high as that obtained with the less reactive 2.17”. Also, in series [6] (compared with 2.17), the “MMAE release speed, in words” value was “faster”. Further, the “Calculated k2 values for the reaction between tetrazine activators and TCO 3.2 in MeCN” value in [7] was 68 M⁻¹ s⁻¹.

For `O=C(CCCC(=O)Nc1cccnc1-c1nnc(-c2ncccc2NC(=O)CCCC(=O)NCCOCCOCCOCCOCCOCCOCCOCCOCCOCCO)nn1)NCCOCCOCCOCCOCCOCCOCCOCCOCCOCCO` [2.14, N^1,N^1′-(2,2′-(1,2,4,5-Tetrazine-3,6-diyl)bis(pyridine-3,2-diyl))bis(N^5-(29-hydroxy-3,6,9,12,15,18,21,24,27-nonaoxanonacosyl)glutaramide)], the “Calculated k2 values for the reaction between tetrazine activators and TCO 3.2 in PBS” value in [2] is 748 ± 20 M⁻¹ s⁻¹. Moreover, the viability at 72 h, 0.01 μM in series [3] worked out at 107 ± 3%. In series [3], the viability at 72 h, 0.1 μM worked out at 104 ± 2.7%. In addition, the viability at 72 h, 1 μM in series [3] was determined as 97 ± 2.5%. Besides, in series [5], the half-life at 16.6 µM is 8.7 ± 0.1 h. The “MMAE release from ADC AVP0458-TCO-MMAE, Release (%)” value in series [6] (setting [10]) stood at 0.6%; in series [6] (10 min), 2.1%; in [6] (1 h) it was 16.6%; in series [6] (5 h), 49.9%; in [6] (24 h, mean ± SD (n = 3)) it was 80.5 ± 0.3%. Moreover, the “MMAE release level, in words” value in series [6] is given as “as high as that obtained with the less reactive 2.17”. In addition, the “on-tumor reaction yield with the ADC (tumor activation)” value in [8] was found to be 94.2±1.8%. Further, the “free MMAE in tumors, comparison of activators” value in [9] is given as “No difference”.
